Drawing on ChEMBL document CHEMBL3826966, “A chromatography-free isolation of rohitukine from leaves of Dysoxylum binectariferum: Evaluation for in vitro cytotoxicity, Cdk inhibition and physicochemical properties” (Bioorg Med Chem Lett, 2016), this text covers logP, pKa and logD for one compound.

By logP is commonly meant a log measure of how a compound divides between an organic and an aqueous phase. Higher therefore signals higher lipophilicity. The term pKa denotes the pH at which an ionisable group is half protonated. Lower therefore signals a stronger acid or weaker base. Usually logD stands for the decadic logarithm of the distribution of all forms, ionised or not, between an organic phase and buffer at a given pH.

Common to all, as to type: physicochemical
A short description of data set [1]: Partition coefficient, logP of the compound in water/PBS buffer at 25 degC by OECD guidelines based method. The note with it: octanol/water.
The nature of data set [2]: Ionization constant, pKa of the compound in buffer at pH 1 to 13 by uV spectrophotometry.
Data set [3] in a line: Distribution coefficient, logD of the compound in water/PBS buffer at pH 7.4 at 25 degC after 20 mins by shake flask method.
The nature of data set [4]: Ionization constant, pKa of the compound.
Data set [5] is described as follows: Partition coefficient, logP of the compound in water/PBS buffer at pH 7.4 at 25 degC after 20 mins by shake flask method.

`CN1CC[C@H](c2c(O)cc(O)c3c(=O)cc(-c4ccccc4Cl)oc23)[C@H](O)C1` [ALVOCIDIB] had a logP in data set [1] of 1.01. Also, the pKa was 5.56 in data set [2] and 5.68 in data set [4]. Moreover, the logD at 20 min came to 1.24 in data set [3] and 0.21 in data set [5].
